Experimental data from patent US11291719B2, “Methods and compositions for modulating Akt3” (Augusta University Research Institute, Inc., priority 2016, dated 2022).

Columns and labels:
Akt1 pS473 = biological target: T1, Akt1 pS473 (Homo sapiens, UniProt P31749); experiment: Akt1 phosphorylation in A2780 cells; format: cell-based; conditions: human ovarian carcinoma cells (A2780)
T1 construct: expression of Akt1 pS473, Akt2 pS474, Akt3 pS472, and Akt pan 5473,474,472 in A2780 cells; endogenous in cells; host or cells: A2780 human ovarian carcinoma cells
Text: FIG. 10 is a bar graph showing the effect of mJJ64A on the expression of Akt1 pS473, Akt2 pS474, Akt3 pS472, and Akt pan 5473,474,472 in A2780 cells compared to control. The Y axis represents integrated density value.

Akt3 = biological target: T2, Akt3 (Homo sapiens, UniProt Q9Y243); experiment: Western blot of Akt3 in Tconv cells during iTreg induction; format: cell-based; conditions: TGF-β induced
T2 construct: endogenous in cells
Text: FIG. 12 is a western blot showing the expression of FoxP3, pAkt3, Akt3, pAkt1, and Akt1 in activated Tconv cells induced with TGF-β and treated with various concentrations of mJJ64A.

nTregs = experiment: Proliferation and viability of activated nTregs; format: cell-based
Text: FIGS. 14A-14H is a set of histograms showing proliferation of activated nTregs treated with various concentrations of mJJ64A. FIG. […] is a bar graph showing percent proliferation of nTregs treated with various concentrations of mJJ64A. The X-axis represents treatment and the Y-axis represents percent proliferation. FIG. 13J is a bar graph showing the percent of live cells in nTregs treated with various concentrations of mJJ64A. The X-axis represents treatment and the Y-axis represents percentage of live cells.
FIGS. 16A-16L is a set of histograms showing the suppressive function of untreated and mJJ64A treated nTregs. The ratio of nTreg to Tconv cells is 0:1, 0.5:1, 1:1, 2:1, and 3:1.

mouse iTreg cells = experiment: Suppressive function of mouse iTregs in vitro; format: cell-based; conditions: iTreg to Tconv ratios 0:1 to 2:1
Text: FIGS. 15A-15J is a set of histograms showing the suppressive function of mouse iTregs in untreated and mJJ64A treated iTregs. The ratio of iTreg to Tconv cells was 0:1, 0.5:1, 1:1, and 2:1.

IL-10 = IL-10 production by nTregs; format: cell-based; conditions: percent IL-10+ FoxP3+ cells
Text: FIG. 17 is a bar graph representing the percent of IL-10^+ FoxP3^+ cells in nTregs treated with various concentrations of mJJ64A.

TC-1 tumor = TC-1 tumor growth under mJJ64A; format: in vivo, mouse; conditions: compared to untreated controls
Text: FIG. 18A is an illustration showing the experimental method and treatment schematic for TC-1 tumor experiments. FIG. 18B is a line graph showing tumor volume (cm^3) over time (days) for untreated (▴) and mJJ64A treated (♦) TC1 tumor bearing mice.

experimental colitis = experiment: Experimental colitis model; format: in vivo, mouse; conditions: Rag-/- colitis mice
Text: FIG. 20A is a schematic illustration of the experimental design of a colitis model. FIG. 20B is a line graph representing weight (g) over time (days post-injection) for control (●), iTreg (▪), mJJ64A+iTreg (▴), and mJJ64A (∘) treated colitis mice. FIG. 20C is a line graph representing normalized weight over time (days post-injection) for control (●), iTreg (▪), mJJ64A+iTreg (▴), and mJJ64A (∘) treated colitis mice. FIG. 20D is a line graph showing percent survival of untreated (●), iTreg (blue circle), mJJ64A+iTreg (▾), and mJJ64A (red circle) treated colitis mice. The X-axis represents time (days) and the Y-axis represents percent survival. FIG. 20E-20I are representative photos of untreated (FIG. 20E), iTreg treated (FIG. 20F), JJa treated iTreg (FIG. 20G), untreated (FIG. 20H), and mJJ64A treated (FIG. 20I) colitis mice. […] FIG. 21A is a photo showing representative colons from untreated (UT), iTreg, mJJ64A treated iTreg, mJJ64A, and wild-type (WT) mice. FIG. 21B is a bar graph representing length and weight of colons from normal, untreated (UT), iTreg, mJJ64A, and mJJ64A+iTreg mice. The X-axis represents the treatment group and the Y-axis represents colon weight/length (mg/mm). […]

T1 sequence (P31749 whole entry): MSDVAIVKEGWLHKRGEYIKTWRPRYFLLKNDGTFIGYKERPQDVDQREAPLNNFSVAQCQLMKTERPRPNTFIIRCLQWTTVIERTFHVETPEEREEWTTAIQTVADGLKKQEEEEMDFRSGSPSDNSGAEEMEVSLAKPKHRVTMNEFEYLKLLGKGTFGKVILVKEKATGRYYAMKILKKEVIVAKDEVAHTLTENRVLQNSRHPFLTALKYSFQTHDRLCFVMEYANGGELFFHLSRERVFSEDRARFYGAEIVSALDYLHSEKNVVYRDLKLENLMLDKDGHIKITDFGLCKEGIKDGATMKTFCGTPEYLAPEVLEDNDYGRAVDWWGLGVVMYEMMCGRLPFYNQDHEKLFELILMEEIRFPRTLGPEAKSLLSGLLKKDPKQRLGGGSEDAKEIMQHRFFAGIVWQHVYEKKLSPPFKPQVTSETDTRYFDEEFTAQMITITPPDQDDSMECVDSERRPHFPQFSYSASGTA
T2 sequence (Q9Y243 whole entry): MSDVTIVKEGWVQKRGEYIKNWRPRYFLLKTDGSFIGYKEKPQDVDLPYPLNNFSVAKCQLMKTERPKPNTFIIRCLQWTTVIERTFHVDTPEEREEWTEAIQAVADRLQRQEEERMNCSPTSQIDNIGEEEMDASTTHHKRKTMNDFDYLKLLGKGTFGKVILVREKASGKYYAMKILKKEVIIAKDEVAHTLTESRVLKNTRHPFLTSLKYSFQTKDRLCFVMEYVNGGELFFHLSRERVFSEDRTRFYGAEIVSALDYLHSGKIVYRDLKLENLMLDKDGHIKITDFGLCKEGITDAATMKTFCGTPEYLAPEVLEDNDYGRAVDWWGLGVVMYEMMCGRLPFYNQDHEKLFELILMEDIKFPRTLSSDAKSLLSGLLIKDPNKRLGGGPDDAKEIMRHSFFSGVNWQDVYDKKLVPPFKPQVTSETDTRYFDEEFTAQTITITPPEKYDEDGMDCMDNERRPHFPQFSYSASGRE

SMILES: N#Cc1ccc2nccc(Nc3ccc(C(=O)Nc4ccc(Nc5ccncc5)cc4)cc3)c2c1 [Compound 2]
- phosphorylation of Akt1 (Akt1 pS473): not
- expression of Akt3 in Tconv cells during iTreg induction (Akt3): increased
- viability of nTregs (nTregs): without affecting
- proliferation of nTregs (nTregs; activated nTregs): increased
- suppressive function of mouse iTreg cells in vitro (mouse iTreg cells): increased
- IL-10 production by nTregs (IL-10): increased
- TC-1 tumor growth (TC-1 tumor): significantly increased
- protection against experimental colitis (experimental colitis): protected
